44 compounds from ChEMBL document CHEMBL1201862, “PubChem BioAssay data set” (2004) can be followed below.

Activity calls are given as the source filed them. Where only a bound is given, the exact number is not on record here.

For assay [1], the target named is T1, Polyadenylate-binding protein 1 (Homo sapiens, UniProt P11940). The assay can be described thus: MLLE binding blockers, Cy5 peptide tracer – biochemical, fluorescence polarization, Cy5-PAM2 peptide, secondary, miRNA deadenylation inhibitor project, dose response (AID 602260). The assay is classed as functional. The note with it: read-out: IC50_Mean.
For assay [2], the target named is T1, Polyadenylate-binding protein 1. The assay can be described thus: MLLE domain peptide-binding blockers, IC50 – biochemical, fluorescence polarization, FITC-PAM2 peptide, dose response (AID 602259). The assay is classed as functional. The note with it: read-out: IC50_Mean.
The target of assay [3] is T2, Heat shock factor protein 1 (Mus musculus, UniProt P38532).
T2 sequence (P38532 whole entry): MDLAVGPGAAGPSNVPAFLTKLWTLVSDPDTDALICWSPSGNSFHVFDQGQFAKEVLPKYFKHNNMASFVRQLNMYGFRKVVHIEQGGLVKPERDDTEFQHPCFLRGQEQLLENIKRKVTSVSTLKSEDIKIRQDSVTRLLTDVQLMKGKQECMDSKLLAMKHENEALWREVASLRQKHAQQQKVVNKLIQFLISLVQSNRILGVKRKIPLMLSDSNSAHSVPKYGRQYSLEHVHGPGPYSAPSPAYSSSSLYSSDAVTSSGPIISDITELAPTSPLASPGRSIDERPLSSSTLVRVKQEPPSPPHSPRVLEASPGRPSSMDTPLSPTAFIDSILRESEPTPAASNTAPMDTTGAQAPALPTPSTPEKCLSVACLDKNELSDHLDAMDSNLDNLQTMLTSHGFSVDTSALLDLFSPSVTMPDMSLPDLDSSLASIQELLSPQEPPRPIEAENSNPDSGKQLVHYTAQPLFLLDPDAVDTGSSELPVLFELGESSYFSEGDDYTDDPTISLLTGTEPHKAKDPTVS
The assay can be described thus: enhancement of HSF1-driven luciferase signal – cell-based, NIH3T3, luminescence, dose retest, confirmation (AID 435004).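 Also: stress induced by proteasome inhibitor MG132 added 30 min after compound; luciferase reporter driven by HSF1 response element in NIH3T3 cells; actives raise luminescence as potentiators of the MG132 stress response.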 The class given is functional.

In assay [4] the test system is H9c2. The assay can be described thus: cells. The note with it: Rattus norvegicus, H9c2, Myocardium. The class given is functional, cell-based.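 Also: confirmatory concentration-response retest of ultra-high-throughput screening hits for modulation of myocardial damage; cell death induced by hydrogen peroxide oxidative stress; compound pretreatment for 60 min then peroxide exposure for 2 h; potency is for protecting the cells against peroxide damage rather than for killing them.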
Assay [5] addresses T2, Heat shock factor protein 1. The assay can be described thus: decrease of HSF1-responsive luciferase luminescence – cell-based, NIH3T3, dose retest, confirmation (AID 2382).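 Also: NIH3T3 fibroblasts with HSF1-driven luciferase reporter stressed by proteasome inhibitor MG132; luminescence from HSF1-driven luciferase expression after 8 hours of MG132 stress.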 The assay is classed as functional.
Assay [6] can be described thus: viability of HCT116 lacking mutant beta-catenin – cell-based, human colon tumor, dose response (AID 1045).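 Also: HCT116 colon tumor cells with beta catenin knocked out; cells exposed to compound for 60 hours.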 The class given is functional.
A short description of assay [7]: viability of PTEN-deleted HCT116 cells – cell-based, HCT116 PTEN knockout, dose response (AID 1047).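 Also: HCT116 colon tumor cells with PTEN knocked out; cells exposed to compound for 60 hours before readout; potency for loss of cell viability measured by luminescence.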 The class given is functional.
Assay [8] in a line: P. falciparum Dd2 growth inhibitors, dose response, SYBR Green, cherry-picked samples (AID 1159567). The assay is classed as functional, cell-based.
A short description of assay [9]: Luminescence Cell-Based Dose Retest to Confirm Inhibitors of Cancer Stem Cells. [Related pubchem assays (depositor defined):AID2717, AID2721]. The assay is classed as functional. The settings on record: Homo sapiens.
Assay [10] has as its target FAD-linked sulfhydryl oxidase ALR (Homo sapiens, UniProt P55789). The assay can be described thus: ALR-catalysed DTT oxidation blockers – biochemical, H2O2 detection, luminescence, cherry-pick, dose response (AID 493248).
Assay [11] can be described thus: cells. The assay is classed as functional.
Assay [12] is described as follows: NIH3T3 cell viability loss – ATP luminescence, mouse fibroblasts, counter-screen, dose response (AID 2010).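 Also: cells exposed to compound for about 90 hours before reading.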 The class given is functional, cell-based.
A short description of assay [13]: Trypanosoma cruzi growth suppression in host cells – NIH3T3 host cells, beta-gal luminescence, confirmation (AID 2044).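 Also: intracellular parasites grown in NIH/3T3 mouse fibroblasts as host cells; luminescent beta-galactosidase reporter signal from transgenic T. cruzi replicating inside host cells; inhibitors lower the luminescence signal.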 The assay is classed as functional, cell-based.
Assay [14] has as its target T3, Protein RecA (Mycobacterium tuberculosis, UniProt P9WHJ3).
T3 sequence (P9WHJ3 whole entry): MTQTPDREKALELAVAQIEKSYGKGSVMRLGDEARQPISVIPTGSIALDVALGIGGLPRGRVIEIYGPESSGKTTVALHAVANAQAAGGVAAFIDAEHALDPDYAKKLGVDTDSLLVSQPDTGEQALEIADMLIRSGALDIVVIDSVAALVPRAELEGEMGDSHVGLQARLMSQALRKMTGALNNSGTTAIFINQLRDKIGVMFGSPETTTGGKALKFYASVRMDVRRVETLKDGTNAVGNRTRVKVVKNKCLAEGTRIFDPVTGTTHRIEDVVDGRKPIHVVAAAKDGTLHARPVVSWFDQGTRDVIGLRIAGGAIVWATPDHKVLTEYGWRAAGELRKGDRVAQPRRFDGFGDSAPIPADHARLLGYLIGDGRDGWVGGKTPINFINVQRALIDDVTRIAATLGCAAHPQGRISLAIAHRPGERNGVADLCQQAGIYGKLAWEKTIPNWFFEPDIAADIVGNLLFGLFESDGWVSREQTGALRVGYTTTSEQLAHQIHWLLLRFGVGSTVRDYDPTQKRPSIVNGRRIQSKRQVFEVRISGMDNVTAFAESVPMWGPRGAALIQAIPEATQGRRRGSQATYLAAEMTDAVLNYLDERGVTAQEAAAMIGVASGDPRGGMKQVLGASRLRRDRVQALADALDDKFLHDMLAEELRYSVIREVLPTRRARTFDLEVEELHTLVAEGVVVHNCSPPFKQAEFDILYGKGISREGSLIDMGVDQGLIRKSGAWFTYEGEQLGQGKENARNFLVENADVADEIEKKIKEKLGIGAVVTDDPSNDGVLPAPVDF
The assay can be described thus: Fluorescence Cell-Free Homogeneous Dose Retest to Identify Inhibitors of RecA-Intein Splicing Activity. [Related pubchem assays (depositor defined):AID2097, AID2223, AID489010, AID492950]. The class given is functional.

For assay [15], the system named is INS1. The assay can be described thus: INS-1E survival protection against cytokine death – cell-based, luminescence, retest, dose response (AID 449756).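 Also: cell death triggered by IL-1 beta plus TNF-alpha plus IFN-gamma mixture; protective hits raise ATP signal compared with cytokine alone wells.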 The settings on record: Rattus norvegicus. The class given is functional.

T1 sequence (P11940 whole entry, the tested form may be a part): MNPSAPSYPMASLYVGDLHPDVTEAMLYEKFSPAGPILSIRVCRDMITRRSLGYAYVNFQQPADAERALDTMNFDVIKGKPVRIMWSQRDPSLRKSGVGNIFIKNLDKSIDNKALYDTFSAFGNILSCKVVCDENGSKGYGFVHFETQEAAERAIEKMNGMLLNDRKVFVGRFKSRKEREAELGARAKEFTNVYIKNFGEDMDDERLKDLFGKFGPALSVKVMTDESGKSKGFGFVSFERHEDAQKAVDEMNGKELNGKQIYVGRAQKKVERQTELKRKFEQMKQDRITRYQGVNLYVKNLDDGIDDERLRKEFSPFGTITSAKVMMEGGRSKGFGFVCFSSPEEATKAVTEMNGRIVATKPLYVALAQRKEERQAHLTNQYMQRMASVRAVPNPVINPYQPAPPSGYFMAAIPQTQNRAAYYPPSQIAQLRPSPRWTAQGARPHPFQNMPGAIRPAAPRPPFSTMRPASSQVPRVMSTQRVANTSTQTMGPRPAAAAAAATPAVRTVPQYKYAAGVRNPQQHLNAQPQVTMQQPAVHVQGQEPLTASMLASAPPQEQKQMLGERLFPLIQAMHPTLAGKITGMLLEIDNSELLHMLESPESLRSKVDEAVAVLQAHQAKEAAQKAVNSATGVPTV
FAD-linked sulfhydryl oxidase ALR, sequence (P55789 whole entry): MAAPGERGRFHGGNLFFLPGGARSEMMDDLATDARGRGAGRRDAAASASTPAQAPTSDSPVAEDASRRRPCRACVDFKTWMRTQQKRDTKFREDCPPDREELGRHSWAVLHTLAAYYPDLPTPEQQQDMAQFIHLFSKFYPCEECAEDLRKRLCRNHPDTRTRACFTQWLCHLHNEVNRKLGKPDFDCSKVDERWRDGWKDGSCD

For `CC(=O)c1c(S)nc(-c2ccccc2)nc1NC(=O)c1ccccc1`, the IC50 in assay [1] and in [2] was > 66 µM (inactive) in each case.

With `C=CCNCCOCCSc1ccc(Cl)cc1`, in assay [3], the EC50 was > 260 µM (inactive). With `O=C(CCc1nc(O)c2ccccc2n1)N1CCN(S(=O)(=O)c2ccc(F)cc2)CC1`, the IC50 in assay [4] is > 79 µM (inactive). For the compound `O=C(CCc1nc(O)c2ccccc2n1)NCc1ccco1`, the IC50 in assay [4] is > 79 µM (inactive). Besides, in [5], the EC50 is reported as > 195 µM (not active). Regarding `O=C1CSC(=S)N1/N=C/c1cccnc1`, the IC50 in [1] and in assay [2] was > 66 µM (inactive) in each case. For the compound `CS(=O)(=O)N(CC(=O)N/N=C/c1cc([N+](=O)[O-])ccc1Cl)c1ccccc1`, the EC50 is 24.4 µM (active) in assay [6] and 26.4 µM (active) in assay [7]. Take `Cc1ccc(NC(=O)CSC2=NCCN2)cc1`: the IC50 in [1] and in assay [2] was > 66 µM (inactive) in each case. As to `COc1ccc(/C=C/C(=O)C23CC4CC(CC(C4)C2)C3)cc1CN1CCOCC1`, the EC50 in assay [3] is 46 µM (active). For `CCC(Sc1nnc2c3ccccc3n(CC)c2n1)C(=O)Nc1sc2c(c1C#N)CCCC2` (centres undefined), the values for the EC50 in assay [6] and in assay [7] were 10.4 µM (active) and 11.7 µM (active), respectively. In the case of `COc1ccc(CN(C)C[C@@H]2Oc3c(NC(=O)c4ccc(-c5nccs5)cc4)cccc3C(=O)N([C@@H](C)CO)C[C@H]2C)cc1`, the AC50 in assay [8] is 3.25 µM (active). On to `COc1ccc(-c2nc3c(c4nnc(SC(C)C(=O)Nc5ccccc5)n24)COC(C)(C)C3)cc1` (centres undefined), for which the EC50 in assay [6] is 8.77 µM (active); in assay [7], 9.44 µM (active). On to `CCOC(=O)C(C(=O)OCC)C(Nc1ccc(Br)cc1)c1ccccc1` (centres undefined), for which the AC50 in assay [9] was 8.85 µM (active). The EC50 in [3] is 15.2 µM (active); in [7], 276 µM (active).

Consider `O=C1CC(NNc2ccccc2)C(=O)N1c1ccccc1` (centres undefined), for which the AC50 in assay [10] was 0.382 µM (active). For the same compound, the EC50 in assay [3] is > 260 µM (inactive).

On to `COCC(C)NC(=O)/C(=C/c1ccccc1)c1ccccc1` (centres undefined), for which the EC50 in [3] was > 260 µM (inactive). Consider `O=C1NC(c2ccc(Cl)c([N+](=O)[O-])c2)Nc2ccccc21` (centres undefined), for which the IC50 in assay [4] was 21.9 µM (active). Take `CC1CN(C(=O)CS(=O)(=O)Cc2ccccc2)CC(C)O1` (centres undefined): in [3], the EC50 is > 260 µM (inactive).

Turning to `COCC(=O)N1CCC2(CC1)CN(Cc1cccc(OC)c1)[C@@H](CO)c1[nH]c3cc(OC)ccc3c12`, in assay [8], the AC50 was 7.42 µM (active). With `c1ccc(SCCOCCN2CCOCC2)cc1`, the EC50 in assay [3] was > 260 µM (inactive). Turning to `COc1cccc(NC(=O)N2[C@@H](CO)[C@@H](c3ccccc3)[C@@H]2CNC(C)C)c1`, the AC50 in assay [8] was 5.06 µM (active). `CSc1ccc(C2C(C#N)=C(N)N(c3ccccc3)C3=C2C(=O)CCC3)cc1` (centres undefined): the EC50 in [3] is 27 µM (active). On to `O=c1oc2ccccc2c2c1nc(C(F)(F)F)n2-c1ccccc1`, for which the IC50 in [11] was 11.4 µM (active). `CC(C)(C)C(=O)Nc1cccc(-c2nnc(-c3cccc(NC(=O)C(C)(C)C)c3)o2)c1`: in assay [4], the IC50 is > 79 µM (inactive). Consider `COCCCNc1nc2ccccc2nc1NS(=O)(=O)c1cccc(Cl)c1`, for which the IC50 in assay [1] and in assay [2] was > 66 µM (inactive) in each case. On to `CS(=O)(=O)N(CC(=O)N1CCN(Cc2ccc3c(c2)OCO3)CC1)Cc1ccc(Cl)cc1`, for which the EC50 in [6] was 77.1 µM (active); in [7] it was 497 µM (active). As to `O=C(Oc1cccc2c(O)nccc12)c1ccccc1`, in assay [4], the IC50 is > 79 µM (inactive). As to `O=C(c1ccco1)N1CCN(C(=O)c2cc(-c3ccncc3)nc3ccc(Br)cc23)CC1`, in assay [4], the IC50 was 7.04 µM (active). Further, the EC50 in assay [12] was > 60 µM (not active); in assay [13], 3.83 µM (active). Take `COc1cccc(-c2ccc3c(c2)[C@@H]2[C@@H](CCN2C(=O)C2CCCC2)[C@H](CO)N3)c1`: the AC50 in assay [8] was 4.88 µM (active). Same read-out and setting: the same measure for `CO[C@@H]1CN(C)C(=O)c2ccc(NC(=O)C3CC3)cc2OC[C@@H](C)N(Cc2ccccc2)C[C@H]1C`: 3.33 µM (active). As for `Cc1sc(NC(=O)CCl)c(C(=O)c2ccccc2)c1C`, in assay [14], the EC50 was 3.55 µM (active). The IC50 in [1] and in assay [2] was > 66 µM (inactive) throughout. Take `Cc1[nH]n(C(N)=S)c(=O)c1/N=N/c1ccc(S(=O)(=O)N2CCCC2)cc1`: the IC50 in assay [1] and in assay [2] was > 66 µM (inactive) in each case. Regarding `NCCc1nnc(SCc2ccc(F)cc2)o1`, the EC50 in assay [3] was > 260 µM (inactive). As to `CCCCCn1c(N)c(-c2nc3ccccc3s2)c2c([N+](=O)[O-])nn(C)c(=O)c21`, the EC50 in assay [12] is > 60 µM (not active); in [6], 12.5 µM (active); in assay [13] it was 2.14 µM (active); in assay [7], 10.1 µM (active). With `CCOC(=O)c1c(C)c(C(=O)Nc2ccc3c(c2)OCO3)c(C)n1C`, in [3], the EC50 is > 260 µM (inactive). In the case of `COc1cccc(C(=O)CSc2nnc(-c3cc(OC)c(OC)c(OC)c3)o2)c1`, the IC50 in [4] was > 79 µM (inactive). The same measure, in the same setting: as for `O=C(C[C@@H]1C/C=C/CC[C@@H](Cc2ccc(F)cc2)C(=O)O[C@@H](c2ccccc2)CNC1=O)NCCO`, the figure is 11.4 µM (active); as for `CC(=O)Nc1cccc(NC(=O)CSc2ccc(-c3ccccn3)nn2)c1`, 24.5 µM (active). For `Cc1c(C(=O)NCC2COc3ccccc3O2)oc2ccc(S(=O)(=O)N3CCOCC3)cc12` (centres undefined), the IC50 in [4] is > 79 µM (inactive).

As for `O=C(O)Cn1c2ccccc2c2nnc(S)nc21`, the IC50 in assay [1] and in [2] was > 66 µM (inactive) throughout. Consider `Cc1ccc(N2CC(C(=O)NCc3nnc(O)c4ccccc34)CC2=O)cc1C` (centres undefined), for which, in [4], the IC50 was > 79 µM (inactive). As for `COc1cccc(COC(=O)CCNC(=O)c2ccc(Cl)cc2)c1OC`, the IC50 in assay [11] was 25.5 µM (active). In the case of `CCN(CC)CCNc1ncnc2c1sc1nc(N3CCOCC3)c3c(c12)CC(C)(C)SC3`, the AC50 in assay [9] is 8.39 µM (active); in assay [15] it was 12.5 µM (active). For the same compound, the half-maximal effective concentration (EC50) was 7.85 µM (active) in assay [6] and 8.46 µM (active) in [7]. Turning to `CC(NC(=O)c1cccs1)C(S)c1ccccc1` (centres undefined), the IC50 in assay [1] and in [2] was > 66 µM (inactive) in each case. In the case of `Cc1ccccc1/N=C/c1cc2c(cc1[N+](=O)[O-])OCO2`, in assay [4], the IC50 is > 79 µM (inactive).

For the compound `NC(=O)c1nsc(C(=O)N(c2ccccc2)C(C(=O)NCC2CCCO2)c2cccs2)c1N` (centres undefined), the EC50 in assay [3] is > 260 µM (inactive).
